{"source": "patent US20200055871A1", "about": "“ACTIVATORS OF THE RETINOIC ACID INDUCIBLE GENE \"RIG-I\" PATHWAY AND METHODS OF USE THEREOF” (Kineta Immuno-Oncology LLC, priority 2018, published 2020)", "key": {"[1]": {"tested_on": "IRF3-deficient THP1-Lucia™ ISG IRF3−/− cells", "experiment": "THP1-Lucia ISG IRF3−/− reporter assay (IRF3-deficient control cells)", "format": "cell-based, human", "details": "compound 5 to 20 μM, 18 h", "experimental": "The promoter was comprised of five IFN-stimulated response elements (ISRE) fused to an ISG54 minimal promoter which is unresponsive to NF-kB or AP-1 pathways. […] The IRF3-deficient THP1-Lucia™ ISG IRF3−/−reporter cell line was generated by CRISPR technology from the parent THP1-Lucia™ ISG reporter cell line.\nTHP1-Lucia™ ISG cells and IRF3-deficient THP1-Lucia™ ISG IRF3−/−cells were differentiated with PMA (100 ng/ml) and stimulated with compounds at the indicated concentrations (5 to 20 μM), positive control, or not treated (background). Luciferase secretion was quantified using the QUANTI-Luc luciferase assay system (InvivoGen) 18 h after stimulation. Data are shown as fold increase luciferase activity over background in Table 7 and represent the IRF3-dependent ISG54 promoter activity by the THP1-Lucia™ ISG cells in response to compounds. […] The fold increase of compounds (10 μM, *20 μM, **5 μM) induced IRF3 dependent luciferase activity is indicated as follows: “≠” indicates less than 2.4 fold increase; “+” indicates a 2.4-4.9 fold increase; “++” indicates a 5-9.9 fold increase; “+++” indicates a 10-19 fold increase; “++++” indicates a 20-39 fold increase; “+++++” indicates greater than or equal to 40 fold increase."}, "[2]": {"tested_on": "RIG-I deficient CT26 RIG-I−/− cells", "experiment": "CXCL10 secretion by RIG-I deficient CT26 RIG-I−/− cells (ELISA); also: key: −: about 0 pg/mL of CXCL10, or below the level of quantitation", "format": "cell-based, murine", "details": "compound 5 to 20 μM, 24 h", "summary_of_the_method": "(§1)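 CT26 murine colon carcinoma cells, parental or CRISPR RIG-I−/−, seeded and grown 24 hr at 37° C, then treated with compounds at 10 μM, or at 5 or 20 μM for some. Secreted CXCL10 measured by ELISA in supernatants 24 h after treatment and reported in pg/mL bands.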"}, "[3]": {"tested_on": "murine CT26 colon carcinoma cells", "experiment": "RIG-I dependent CXCL10 secretion by CT26 cells (ELISA)", "format": "cell-based", "details": "supernatant 24 h after stimulation", "summary_of_the_method": "as §1"}, "[4]": {"tested_on": "IRF3 signaling pathway in THP1-Lucia™ ISG cells", "experiment": "THP1-Lucia ISG reporter assay: induction of IRF3-dependent gene expression (secreted luciferase)", "format": "cell-based, human", "details": "PMA-differentiated cells, 18 h after stimulation", "summary_of_the_method": "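PMA-differentiated THP-1 reporter cells (ISRE/ISG54 promoter driving secreted luciferase), plus CRISPR IRF3−/− line, treated with compounds at 5–20 μM (mostly 10 μM). Luciferase measured 18 h later; values are fold increase over untreated background, binned from <2.4 to ≥40.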"}, "[5]": {"tested_on": "murine CT26 colon carcinoma cells", "experiment": "Compound-induced immunogenic cell death: apoptosis (Annexin V) and calreticulin translocation by flow cytometry", "format": "cell-based", "details": "18 h after treatment, dose titration, FIG. 1", "experimental": "To determine if the RIG-I agonist compounds induce immunogenic cell death in cancer cells, induction of apoptosis and the translocation of calreticulin (CRT) to the cell surface in murine CT26 colon carcinoma cells were evaluated. The translocation of CRT occurs as part of a specific RIG-I dependent danger-signaling system, and the presence of CRT on the cell membrane promotes tumor antigen uptake by the dendritic cells and leads to the induction of an antigen-specific T cell response\nThe induction of apoptosis and the CRT translocation were measured by flow cytometry. […] Cells were harvested 18 h after treatment and then prepared for flow cytometry using an Annexin V staining kit (Biolegend) for quantification of apoptosis, an anti-CRT antibody (Abgent) for calreticulin translocation, and the Live/Dead-Violet staining kit (Thermofisher) for cell viability. Induction of apoptosis and translocation of calreticulin (CRT) to cell surface by live cells was determined by tri-color flow cytometry using FITC-labeled Annexin V, Live/Dead-iolet (LDV), and APC-anti-CRT. Apoptotic cells were defined as Annexin V^+ and calreticulin translocation to cell surface was quantified by mean fluorescent intensity (MFI) of calreticulin^+ live cells (CRT^+ LDV^−). […]"}}}
{"compound": "Cn1c(C(=O)Nc2cc3ccc4scnc4c3s2)cc2ccccc21", "note": "[Example 60, N-{5,12-dithia-3-azatricyclo[7.3.0.0^2,^6]dodeca-1,3,6,8,10-pentaen-11-yl}-1-methyl-1H-indole-2-carboxamide]", "values": [{"measurement": "fold increase of luciferase activity, THP1 ISG IRF3−/−", "setting": "[1]", "result": "− (less than 0.5 fold above baseline was considered below the level of quantitation)"}, {"measurement": "CXCL10 secretion, CT26 RIG-I−/−", "setting": "[2]", "result": "−"}, {"measurement": "CXCL10 secretion, CT26", "setting": "[3]; 20 μM compound (*)", "result": "+* (100-199 pg/mL)"}, {"measurement": "fold increase of IRF3-dependent luciferase activity over background, THP1 ISG", "setting": "[4]; 20 μM compound (*)", "result": "+* (a 2.4-4.9 fold increase)"}]}
{"compound": "O=C(Nc1nc2ccc3ocnc3c2s1)c1cc2ccccc2cc1OCCCCN1CCOCC1", "note": "[Example 53, 3-[4-(morpholin-4-yl)butoxy]-N-{10-oxa-3-thia-5,12-diazatricyclo [7.3.0.0^2,^6]dodeca-1,4,6,8,11-pentaen-4-yl}naphthalene-2-carboxamide]", "values": [{"measurement": "fold increase of luciferase activity, THP1 ISG IRF3−/−", "setting": "[1]", "result": "− (less than 0.5 fold above baseline was considered below the level of quantitation)"}, {"measurement": "CXCL10 secretion, CT26 RIG-I−/−", "setting": "[2]", "result": "−"}, {"measurement": "CXCL10 secretion, CT26", "setting": "[3]; 10 μM compound", "result": "+++++ (greater than or equal to 1600 pg/ml)"}, {"measurement": "fold increase of IRF3-dependent luciferase activity over background, THP1 ISG", "setting": "[4]; 10 μM compound", "result": "++ (a 5-9.9 fold increase)"}]}
{"compound": "N-{5,12-dithia-3-azatricyclo[7.3.0.0^2,^6]dodeca-1,3,6,8,10-pentaen-11-yl}-3-[4-(morpholin-4-yl)butoxy]-[1,1′-biphenyl]-4-carboxamide [Example 62]", "values": [{"measurement": "fold increase of luciferase activity, THP1 ISG IRF3−/−", "setting": "[1]", "result": "− (less than 0.5 fold above baseline was considered below the level of quantitation)"}, {"measurement": "CXCL10 secretion, CT26 RIG-I−/−", "setting": "[2]", "result": "−"}, {"measurement": "induction of immunogenic cell death (apoptosis, calreticulin translocation to cell surface)", "setting": "[5]", "result": "induction of immunogenic cell death"}, {"measurement": "CXCL10 secretion, CT26", "setting": "[3]; 10 μM compound", "result": "++++ (800 to 1599 pg/mL)"}, {"measurement": "fold increase of IRF3-dependent luciferase activity over background, THP1 ISG", "setting": "[4]; 10 μM compound", "result": "+++ (a 10-19 fold increase)"}]}
{"compound": "N-[11-(methylsulfanyl)-3,10-dithia-5,12-diazatricyclo[7.3.0.0^2,^6]dodeca-1,4,6,8,11-pentaen-4-yl]-3-[4-(morpholin-4-yl)butoxy]naphthalene-2-carboxamide [Example 37]", "values": [{"measurement": "fold increase of luciferase activity, THP1 ISG IRF3−/−", "setting": "[1]", "result": "− (less than 0.5 fold above baseline was considered below the level of quantitation)"}, {"measurement": "CXCL10 secretion, CT26 RIG-I−/−", "setting": "[2]", "result": "−"}, {"measurement": "CXCL10 secretion, CT26", "setting": "[3]; 10 μM compound", "result": "++++ (800 to 1599 pg/mL)"}, {"measurement": "fold increase of IRF3-dependent luciferase activity over background, THP1 ISG", "setting": "[4]; 10 μM compound", "result": "+++ (a 10-19 fold increase)"}]}
